# Assay results from PMC12259270, “Sensory neuron–expressed FGF13 controls nociceptive signaling in diabetic neuropathy models” (The Journal of Clinical Investigation, 2025).
# Residues, ends and D or L forms follow the SMILES beside them. *: point of attachment. Cbz = O=C(OCc1ccccc1)*; OtBu = CC(C)(C)O*
# Assays:
# [1] = tested on: Na+ currents in hIPSC-derived sensory neurons (RealDRG); assay: Whole-cell voltage clamp, hIPSC-derived sensory neurons (RealDRG) with Nav1.8 blocker A-803467; assay type: cell-based, human; details: for Long-term inactivation, 2nd Pulse / Long-term inactivation, 3rd Pulse / Long-term inactivation, 4th Pulse / Activation / Peak Density / Steady-State inactivation / Tau (τ): RealDRG
# Experimental: (§1) Next, we conducted whole-cell patch-clamp electrophysiological recordings in hIPSC-derived sensory neurons under three conditions: unstimulated and treated with 0.07% ethanol (capsaicin vehicle), treated with capsaicin (100 nM, 10 minutes), and treated with capsaicin plus SB-366791 (10 μM), a selective TRPV1 inhibitor. Each group was exposed to either vehicle (0.01% DMSO) or PW164 (50 μM), with all recordings performed in the presence of the Nav1.8 blocker A-803467 (300 nM) ([41]). The experimental groups are color coded in Figure 2A. Capsaicin caused potentiation of INa (Figure 2A) and induced hyperpolarizing shifts in the V1/2 of activation (Figure 2B) and SSI (Figure 2C). […] Next, we investigated whether silencing FGF13 could replicate PW164’s effects and prevent additional activity of the compound. hIPSC-derived sensory neurons were transfected with a previously validated pAAV-shFGF13-GFP construct ([42]) (Supplemental Figure 8). […] Neither PW164 nor FGF13 silencing affected Na+ currents in neurons transfected with pAAV-shCTRL-GFP or pAAV-shFGF13-GFP, whether unstimulated or treated with capsaicin in the presence of ProTx II (Supplemental Figure 9 and Supplemental Table 6). Thus, PW164 selectively modulated FGF13-dependent Na^+ current sensitization via TRPV1, with FGF13 silencing mimicking and validating PW164’s effect. […]
# (§2) Whole-cell patch clamp electrophysiology
# (§3) HEK293-Nav1.7 cells, HEK293 stably expressing human Nav1.6 (HEK-Nav1.6), HEK293 stably expressing human Nav1.5 (HEK-Nav1.5), human hIPSC-derived sensory neurons (RealDRGTM from Anatomic Incorporated 1020F1-1M) and donor-derived DRG neurons were plated at low density on glass coverslips and processed for whole-cell patch clamp electrophysiology in voltage-clamp and/or current clamp mode. Whole-cell patch electrophysiological experiments were conducted following previously published studies (26). Current densities were obtained by dividing INa amplitude by membrane capacitance. Current –voltage relationships were generated by plotting current density as a function of the […]. Conductance (G Na) was calculated by the […]
# (§4) where INa is the current amplitude at voltage Vm, and Erev is the Na+ reversal potential.
# (§5) Activation curves were derived by plotting normalized GNa as a function of test potential and fitted using […]
# (§6) Where GNa,Max is the maximum conductance, Va is the membrane potential of half-maximal activation, Em is the membrane voltage and k is the slope factor. For steady -state inactivation, normalized current amplitude (INa/INa,Max) at the test potential was plotted as a function of prepulse potential (Vm) and fitted using the […]
# (§7) Where Vh is the potential of half-maximal inactivation, E m is the membrane voltage, and k is the slope factor.
# (§8) Transient INa inactivation decay was estimated with the standard exponential equation. Inactivation time constant (tau, τ) was fitted with the following equation: […]
# (§9) where I(t) is the amplitude of the current at time t and Iss is the steady-state current during a single voltage-step.
# (§10) The goodness of fitting was determined by correlation coefficient (R), and the cutoff of R was set at 0.85. To observe effects on long-term inactivation (LTI), a four-step protocol was employed during which cells were subjected to four 0 mV, 20 ms depolarization pulses separated by −90 mV, 40 ms recovery intervals. To control for various cell sizes, the current densities were calculated by dividing INa peak current amplitude/membrane capacitance (Cm). To represent the fraction of channels entering into LTI, the peak INa observed during depolarization cycles 2-4 was normalized to the peak INa observed during depolarization cycle 1 (INa/INa,Cycle 1) and plotted as a function of the depolarization cycle.
# (§11) The cumulative (frequency-dependent) use-dependency was determined by applying 20 pulses with a depolarization to −10 mV (50 ms duration) and 50 ms recovery intervals with a train of 20 pulses at 10 Hz from a holding potential at -70 mV. […]
# [2] = tested on: Na+ currents in hIPSC-derived sensory neurons (RealDRG); assay: Whole-cell voltage clamp, hIPSC-derived sensory neurons (RealDRG) with Nav1.7 blocker ProTx-II; assay type: cell-based, human
# Experimental: as §1, §2, §3, §4, §5, §6, §7, §8, §9, §10, §11
# [3] = + A-803467, AAV-FGF13 + PW164, no capsaicin
# [4] = + A-803467, Cap + Control + PW164
# [5] = + A-803467, Cap+ AAV-FGF13 PW164
# [6] = + A-803467, Cap+ ShFGF13 + PW164
# [7] = + A-803467, Cap- Control (pAAV-shCTRL-GFP) + PW164
# [8] = + A-803467, Cap- Control + PW164
# [9] = + A-803467, Cap- ShFGF13 + PW164
# [10] = + Nav1.8 blocker A-803467, Cap+ - PW164
# [11] = + Nav1.8 blocker A-803467, Cap+ PW164
# [12] = + Nav1.8 blocker A-803467, Cap+ SB-366791 - PW164
# [13] = + Nav1.8 blocker A-803467, Cap+ SB-366791 PW164
# [14] = + Nav1.8 blocker A-803467, Naïve + PW164
# [15] = + Nav1.8 blocker A-803467, Naïve - PW164
# [16] = RealDRG, + Nav1.7 blocker ProTx-II, Cap+ - PW164
# [17] = RealDRG, + Nav1.7 blocker ProTx-II, Cap+ PW164
# [18] = RealDRG, + Nav1.7 blocker ProTx-II, Naïve + PW164
# [19] = RealDRG, + Nav1.7 blocker ProTx-II, Naïve - PW164
structure (smiles),measurement,setting,value
COC(=O)[C@@H](NC(=O)[C@H](CCC(=O)OC(C)(C)C)NC(=O)[C@H](CC(C)C)NC(=O)[C@@H]1CCCN1C(=O)OCc1ccccc1)C(C)C [PW164] (Cbz-PLE(OtBu)V-OMe),effect on capsaicin-induced Na+ current phenotypes,"[1]; PW164 50 μM, 30–60 minutes, capsaicin 100 nM, except LTI",reversed capsaicin-induced phenotypes
same,effect on Na+ currents without sensitization,"[1]; PW164 50 μM, unstimulated control, or SB-366791, or ProTx II",no significant alterations
same,"Long-term inactivation, 2nd Pulse","[1]; + A-803467, AAV FGF13 + PW64",−68.4 ± 7.1 % maximal Na+ current
same,"Long-term inactivation, 3rd Pulse","[1]; + A-803467, AAV FGF13 + PW64",−61.9 ± 7.5 % maximal Na+ current
same,"Long-term inactivation, 4th Pulse","[1]; + A-803467, AAV FGF13 + PW64",−58.5 ± 8.3 % maximal Na+ current
same,Activation,[1]; [3],−24.3 ± 0.8 mV
same,Peak Density,[1]; [3],−114.3 ± 5.6 pA/pF
same,Steady-State inactivation,[1]; [3],−75.65 ± 1.6 mV
same,Tau (τ),[1]; [3],1.65 ± 0.14 ms
same,Activation,[1]; [4],−21.92 ± 0.87 mV
same,"Long-term inactivation, 2nd Pulse",[1]; [4],−59.86 ± 2.37 % maximal Na+ current
same,"Long-term inactivation, 3rd Pulse",[1]; [4],−49.84 ± 2.93 % maximal Na+ current
same,"Long-term inactivation, 4th Pulse",[1]; [4],−46.98 ± 3.3 % maximal Na+ current
same,Peak Density,[1]; [4],−92.79 ± 7.96 pA/pF
same,Steady-State inactivation,[1]; [4],−58.11 ± 1.04 mV
same,Tau (τ),[1]; [4],1.42 ± 0.09 ms
same,Activation,[1]; [5],−27.8 ± 0.81 mV
same,Peak Density,[1]; [5],−91.7 ± 10.3 pA/pF
same,Steady-State inactivation,[1]; [5],−73.36 ± 1.4 mV
same,Tau (τ),[1]; [5],1.63 ± 0.22 ms
same,Activation,"[1]; + A-803467, Cap+ AAV-GFP PW164",−28.39 ± 0.59 mV
same,Peak Density,"[1]; + A-803467, Cap+ AAV-GFP PW164",−87.62 ± 9.5 pA/pF
same,Steady-State inactivation,"[1]; + A-803467, Cap+ AAV-GFP PW164",−75.15 ± 1.69 mV
same,Tau (τ),"[1]; + A-803467, Cap+ AAV-GFP PW164",2.0 ± 0.32 ms
same,"Long-term inactivation, 2nd Pulse","[1]; + A-803467, Cap+ GFP PW164",−53.56 ± 4.9 % maximal Na+ current
same,"Long-term inactivation, 3rd Pulse","[1]; + A-803467, Cap+ GFP PW164",−54.96 ± 3.6 % maximal Na+ current
same,"Long-term inactivation, 4th Pulse","[1]; + A-803467, Cap+ GFP PW164",−54.22 ± 4.3 % maximal Na+ current
same,Activation,[1]; [6],−32.72 ± 1.59 mV
same,"Long-term inactivation, 2nd Pulse",[1]; [6],−74.3 ± 3.96 % maximal Na+ current
same,"Long-term inactivation, 3rd Pulse",[1]; [6],−68.4 ± 5.4 % maximal Na+ current
same,"Long-term inactivation, 4th Pulse",[1]; [6],−67.2 ± 5.2 % maximal Na+ current
same,Peak Density,[1]; [6],−76.49 ± 4.86 pA/pF
same,Steady-State inactivation,[1]; [6],−67.68 ± 1.53 mV
same,Tau (τ),[1]; [6],1.38 ± 0.10 ms
same,"Long-term inactivation, 2nd Pulse","[1]; + A-803467, Cap+ hFGF13 PW164",−55.4 ± 2.7 % maximal Na+ current
same,"Long-term inactivation, 3rd Pulse","[1]; + A-803467, Cap+ hFGF13 PW164",−52.0 ± 3.7 % maximal Na+ current
same,"Long-term inactivation, 4th Pulse","[1]; + A-803467, Cap+ hFGF13 PW164",−45.4 ± 3.1 % maximal Na+ current
same,Activation,[1]; [7],−25.74 ± 1.14 mV
same,Peak Density,[1]; [7],−111.31 ± 11.73 pA/pF
same,Steady-State inactivation,[1]; [7],−60.96±1.53 mV
same,Tau (τ),[1]; [7],1.18 ± 0.09 ms
same,"Long-term inactivation, 2nd Pulse",[1]; [8],−86.72 ± 2.2 % maximal Na+ current
same,"Long-term inactivation, 3rd Pulse",[1]; [8],−82.89 ± 3.3 % maximal Na+ current
same,"Long-term inactivation, 4th Pulse",[1]; [8],−81.6 ± 3.6 % maximal Na+ current
same,Activation,[1]; [9],−29.77 ± 1.74 mV
same,"Long-term inactivation, 2nd Pulse",[1]; [9],−82.82 ± 2.85 % maximal Na+ current
same,"Long-term inactivation, 3rd Pulse",[1]; [9],−81.52 ± 3.86 % maximal Na+ current
same,"Long-term inactivation, 4th Pulse",[1]; [9],−81.16 ± 4.06 % maximal Na+ current
same,Peak Density,[1]; [9],−96.02 ± 8.94 pA/pF
same,Steady-State inactivation,[1]; [9],−64.99 ± 1.30 mV
same,Tau (τ),[1]; [9],0.98 ± 0.09 ms
same,Activation,[1]; [10],−27.51 ± 1.22 mV
same,Peak Density,[1]; [10],−71.9 ± 9.4 pA/pF
same,Steady-State inactivation,[1]; [10],−74.71 ± 1.43 mV
same,Tau (τ),[1]; [10],1.39 ± 0.09 ms
same,"Long-term inactivation, 2nd Pulse",[1]; [11],−45.59 ± 3.33 % maximal Na+ current
same,"Long-term inactivation, 3rd Pulse",[1]; [11],−38.18 ± 2.61 % maximal Na+ current
same,"Long-term inactivation, 4th Pulse",[1]; [11],−32.17 ± 4.29 % maximal Na+ current
same,Activation,[1]; [12],−30.7 ± 0.53 mV
same,Peak Density,[1]; [12],−95.2 ± 9.9 pA/pF
same,Steady-State inactivation,[1]; [12],−73.56 ± 1.33 mV
same,Tau (τ),[1]; [12],1.52 ± 0.11 ms
same,"Long-term inactivation, 2nd Pulse",[1]; [13],−54.94 ± 3.35 % maximal Na+ current
same,"Long-term inactivation, 3rd Pulse",[1]; [13],−47.15 ± 2.81 % maximal Na+ current
same,"Long-term inactivation, 4th Pulse",[1]; [13],−45.57 ± 4.0 % maximal Na+ current
same,"Long-term inactivation, 2nd Pulse",[1]; [14],−74.84 ± 5.46 % maximal Na+ current
same,"Long-term inactivation, 3rd Pulse",[1]; [14],−67.02 ± 3.43 % maximal Na+ current
same,"Long-term inactivation, 4th Pulse",[1]; [14],−65.63 ± 4.22 % maximal Na+ current
same,Activation,[1]; [15],−30.27 ± 0.75 mV
same,Peak Density,[1]; [15],−84.1 ± 5.9 pA/pF
same,Steady-State inactivation,[1]; [15],−75.11 ± 0.78 mV
same,Tau (τ),[1]; [15],0.98 ± 0.09 ms
same,effect on INa potentiation by FGF13 overexpression,"[1]; pAAV-FGF13-GFP neurons, PW164 50 μM",fully attenuated
same,effect on capsaicin-potentiated Na+ currents with ProTx-II,"[2]; ProTx-II 10 nM, Suppl Fig 7",does not have any effect
same,Activation,[2]; [16],−29.15 ± 0.86 mV
same,Peak Density,[2]; [16],−80.16 ± 8.05 pA/pF
same,Steady-State inactivation,[2]; [16],−61.95 ± 1.29 mV
same,Tau (τ),[2]; [16],0.98 ± 0.08 ms
same,"Long-term inactivation, 2nd Pulse",[2]; [17],−118.43 ± 3.81 % maximal Na+ current
same,"Long-term inactivation, 3rd Pulse",[2]; [17],−120.42 ± 4.69 % maximal Na+ current
same,"Long-term inactivation, 2nd Pulse",[2]; [18],−105.72 ± 2.72 % maximal Na+ current
same,"Long-term inactivation, 3rd Pulse",[2]; [18],−110.76 ± 2.72 % maximal Na+ current
same,"Long-term inactivation, 4th Pulse",[2]; [18],−113.94 ± 3.54 % maximal Na+ current
same,Activation,[2]; [19],−29.68 ± 1.17 mV
same,Peak Density,[2]; [19],−76.99 ± 6.01 pA/pF
same,Steady-State inactivation,[2]; [19],−61.23 ± 1.29 mV
same,Tau (τ),[2]; [19],0.87 ± 0.04 ms
